Reference: ChEMBL document CHEMBL3580619, “The antimalarial drug atovaquone binds to saposin B with comparable affinity to coenzyme Q10” (Medchemcomm, 2014)

Tests used:
[1] = target: T1, Prosaposin (Homo sapiens, UniProt P07602); assay: Binding affinity to human saposin B expressed in Escherichia coli BL21 Gold (DE3) at 154 uM using 25 to 27 uM sapB and 50 mM MES and 50% DMF at pH 5.5 and 25 degC by ITC method; format: ADME; conditions: pH 5.5, 154 µM
T1 sequence (P07602 whole entry): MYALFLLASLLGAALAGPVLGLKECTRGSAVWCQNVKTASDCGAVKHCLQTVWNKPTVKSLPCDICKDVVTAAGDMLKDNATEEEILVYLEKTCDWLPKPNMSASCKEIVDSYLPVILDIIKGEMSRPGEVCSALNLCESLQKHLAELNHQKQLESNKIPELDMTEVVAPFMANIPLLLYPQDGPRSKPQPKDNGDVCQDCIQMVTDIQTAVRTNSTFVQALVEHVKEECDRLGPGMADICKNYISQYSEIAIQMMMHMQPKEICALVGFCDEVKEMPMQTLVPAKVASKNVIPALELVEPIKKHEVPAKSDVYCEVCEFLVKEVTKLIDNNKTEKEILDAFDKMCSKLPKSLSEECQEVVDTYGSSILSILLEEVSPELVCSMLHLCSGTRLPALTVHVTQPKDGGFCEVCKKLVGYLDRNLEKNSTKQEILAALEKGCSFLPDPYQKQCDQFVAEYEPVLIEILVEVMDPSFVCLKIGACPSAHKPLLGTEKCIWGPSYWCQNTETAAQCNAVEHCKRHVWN

[2] = target: T1, Prosaposin; assay: Binding affinity to human saposin B expressed in Escherichia coli BL21 Gold (DE3) at 120 uM using 15 uM sapB and 50 mM MES and 4% THF at pH 5.5 and 25 degC by ITC method; format: ADME; conditions: pH 5.5, 120 µM
[3] = Protein binding in human plasma; format: ADME, cell-free; conditions: read-out: PPB
[4] = target: T1, Prosaposin; assay: Binding affinity to human saposin B expressed in Escherichia coli BL21 Gold (DE3) at 150 um using 20 uM SapB and 20 mM phosphate and 30% DMF at pH 7.4 and 25 degC by ITC method; format: ADME; conditions: pH 7.4, 150 µM
[5] = target: T2, Albumin (Homo sapiens, UniProt P02768); assay: Binding affinity to human serum albumin in Ringer buffer and 2 to 7% v/v ethanol at pH 7.4 and 37 degC by CD spectroscopy; format: ADME; conditions: isolated protein
T2 sequence (P02768 whole entry): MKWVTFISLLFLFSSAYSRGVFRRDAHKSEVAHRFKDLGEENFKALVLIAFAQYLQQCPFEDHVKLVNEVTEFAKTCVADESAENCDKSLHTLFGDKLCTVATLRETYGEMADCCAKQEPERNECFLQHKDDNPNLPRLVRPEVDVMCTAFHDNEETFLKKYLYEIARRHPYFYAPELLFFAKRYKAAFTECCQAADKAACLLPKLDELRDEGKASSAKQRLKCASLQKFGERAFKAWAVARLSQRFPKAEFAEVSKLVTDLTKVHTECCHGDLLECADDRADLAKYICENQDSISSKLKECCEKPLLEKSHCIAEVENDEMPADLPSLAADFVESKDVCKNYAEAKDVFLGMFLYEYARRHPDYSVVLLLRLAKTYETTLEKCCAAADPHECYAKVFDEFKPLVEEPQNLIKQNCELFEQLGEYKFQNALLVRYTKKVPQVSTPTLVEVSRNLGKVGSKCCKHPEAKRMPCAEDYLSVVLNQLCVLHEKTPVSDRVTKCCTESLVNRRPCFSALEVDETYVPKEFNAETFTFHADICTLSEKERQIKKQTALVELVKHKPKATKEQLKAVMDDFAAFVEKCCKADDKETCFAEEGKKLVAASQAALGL

[6] = target: T1, Prosaposin; assay: Binding affinity to human saposin B expressed in Escherichia coli BL21 Gold (DE3) at 150 uM using 15 to 20 uM sapB and 50 mM MES and 10% DMF at pH 5.5 and 25 degC by ITC method; format: ADME; conditions: pH 5.5, 150 µM
[7] = Inhibition of coenzyme Q10 binding to cytochrome bc1 complex (unknown origin)
[8] = target: T2, Albumin; assay: Binding affinity to human serum albumin at 845 uM using 33.8 uM HSA and 14 mM phosphate and 30% DMF at pH 7.4 and 25 degC by fluorescence spectroscopy; format: ADME; conditions: isolated protein, pH 7.4, 845 µM
[9] = target: T2, Albumin; assay: Ratio of Ka for human serum albumin by ITC method to Ka for human serum albumin by CD spectroscopy; format: ADME
[10] = target: T2, Albumin; assay: Binding affinity to human serum albumin by CD spectroscopy; format: ADME; conditions: isolated protein
[11] = target: T2, Albumin; assay: Binding affinity to human serum albumin at 150 uM using 20 uM HSA and 20 mM phosphate and 30% DMF at pH 7.4 and 25 degC by ITC method; format: ADME; conditions: isolated protein, pH 7.4, 150 µM

Row | K [1] [×10⁷ /M] | K [2] [×10⁷ /M] | fraction unbound [3] | K [4] [×10⁴ /M] | K [5] [×10⁶ /M] | K [6] [×10⁷ /M] | Ki [7] [nM] | Ka [8] [×10⁴ /M] | Ratio [9] | Ka [10] [×10⁶ /M] | K [11] [×10⁵ /M] | Compound
1 | 1.7 | 2.41 | – | – | – | – | – | – | – | – | – | COC1=C(OC)C(=O)C(C/C=C(\C)CC/C=C(\C)CC/C=C(\C)CC/C=C(\C)CC/C=C(\C)CC/C=C(\C)CC/C=C(\C)CC/C=C(\C)CC/C=C(\C)CCC=C(C)C)=C(C)C1=O [UBIDECARENONE]
2 | – | – | < 0.005 | 8.02 | 1 | 1.11 | 9 | 7.15 | 10 | 2 | 1.06 | O=C1C(O)=C([C@H]2CC[C@H](c3ccc(Cl)cc3)CC2)C(=O)c2ccccc21 [ATOVAQUONE]
